For assay [1], the system named is Staphylococcus aureus. Briefly: Antibacterial activity against methicillin-resistant Staphylococcus aureus ST398. The class given is functional.
In assay [2] the test system is Escherichia coli. Briefly: Antibacterial activity against Escherichia coli JM109 expressing Bgl2.

≈ marks a conversion by molar mass, not a printed value.

Take `CC1(C)S[C@@H]2[C@H](NC(=O)[C@H](N)c3ccccc3)C(=O)N2[C@H]1C(=O)O` [AMPICILLIN]: inhibition of growth in assay [1] (MIC) required 8 µg/mL (≈ 22.9 µM).

Regarding `Cc1onc(-c2ccccc2)c1C(=O)N[C@@H]1C(=O)N2[C@@H]1SC(C)(C)[C@@H]2C(=O)O` [OXACILLIN], the MIC (in general, the lowest concentration found to suppress growth) in assay [1] came to 8 µg/mL (≈ 19.9 µM).

As for `CC1(C)S[C@@H]2[C@H](NC(=O)Cc3ccccc3)C(=O)N2[C@H]1C(=O)O` [PENICILLIN G], the MIC in assay [1] stood at 8 µg/mL (≈ 23.9 µM).

The compound `CN(C)[C@@H]1C(O)=C(C(N)=O)C(=O)[C@@]2(O)C(O)=C3C(=O)c4c(O)cccc4[C@@](C)(O)[C@H]3C[C@@H]12` [TETRACYCLINE] came in with an MIC in assay [1] of 64 µg/mL (≈ 144 µM).

`COc1cc(Cc2cnc(N)nc2N)cc(OC)c1OC` [TRIMETHOPRIM]: the figures for the MIC in assay [1] and in assay [2] were more than 256 µg/mL and not below 512 µg/mL, respectively.

The record behind these values is ChEMBL document CHEMBL1629594, “Identification of a novel trimethoprim resistance gene, dfrK, in a methicillin-resistant Staphylococcus aureus ST398 strain and its physical linkage to the tetracycline resistance gene tet(L)” (2009).
